In general, mass density refers to mass per unit of volume.

Numbers after ± are expanded uncertainties.

For the data set the following is noted: 298.15 K; 101.33 kPa; Liquid; Vibrating tube method.
For the compound `CO` [methanol], the mass density is recorded as 787.52 ± 1.6 kg/m3.
The figure for `CCCOCCO` [2-propoxyethanol] is 907.878 ± 1.8 kg/m3.
As to `CC(C)O` [propan-2-ol], the mass density stood at 781.214 ± 1.6 kg/m3.
Consider `CCCO` [propan-1-ol], for which the mass density turned out to be 801.08 ± 1.6 kg/m3.
Take `CCO` [ethanol]: the mass density is reported as 787.577 ± 1.6 kg/m3.
For the compound `COCCO` [2-methoxyethan-1-ol], the mass density was found to be 960.892 ± 1.9 kg/m3.

The values are drawn from the NIST ThermoML archive (doi:10.1021/acs.jced.5b00122).
